What was measured:
panelists [1] = assay: Taste evaluation of sweetness against sucrose solutions, Example 2 (compound 1 with Mogroside V); format: in vivo, human; settings: for sweetness, equally sweet to sucrose in acidic water: two panelists
Experimental: (§1) Ingredients were added to acidic water or acidic water with compound 1 while stirring until solids were visibly dissolved and the sample was poured into a glass bottle and stored at 4° C.
(§2) Taste tests were carried out with two panelists. Bottles were removed from the refrigerator and about 25 ml of beverage was poured into 4 oz-plastic cups. Panelists were given mineral water to rinse their mouth before tasting and between tasting different samples. Unsalted crackers were also given to panelists to eat followed by rinsing their mouth with mineral water before tasting the next sample. The sucrose solutions in Table 4, a sample of Mogroside V in acidic water and a sample of compound 1 and Mogroside V in acidic water were given to panelists. Panelists were asked to evaluate the sweetness of samples against 7%, 8%, 9%, and 10% sucrose solution and describe the difference of taste profile. Panelists were instructed to sip, evaluate the sweetness, and then spit the samples in cups provided for that purpose.

panelists [2] = assay: Taste evaluation of sweetness against sucrose solutions, Example 3 (compound 1 with Rebaudioside A); format: in vivo, human; settings: for sweetness, equally sweet to sucrose in acidic water: two panelists
Experimental: as §1
as §2, with “Rebaudioside A” for “Mogroside V”, “differences in the” for “difference of”, “profiles.” for “profile.”

panelists [3] = assay: Taste evaluation of sweetness against sucrose solutions, Example 1 (compound 1 with Rebaudioside M); format: in vivo, human
Experimental: as §1
Taste tests were carried out with two panelists. Bottles were removed from the refrigerator and about 25 ml of beverage was poured into 4 oz-plastic cups. Panelists were given mineral water to rinse their mouth before tasting and between tasting different samples. Unsalted crackers were also given to panelists to eat followed by rinsing their mouth with mineral water before tasting the next sample.
First, two panelists assessed the sweetness of 5 ppm of compound 1 in acidic water against 1.5% sucrose solution in acidic water.
Sucrose solutions in Table 5, a sample of Rebaudioside M in acidic water and a sample of compound 1 and Rebaudioside M in acidic water were given to panelists. Panelists were asked to evaluate the sweetness of samples against 7%, 8%, 9%, and 10% sucrose solution and describe the differences in the taste profiles. Panelists were instructed to sip, evaluate the sweetness, and then spit the samples in cups provided for that purpose.

[4] = Solubility in water during sample preparation; format: physicochemical; settings: 2.5 mg in 500 g water, initially, before microwave, sonication and agitation
Experimental: The sample was treated with Microwave (1 min), Sonication (15 min), and agitation (30 min) repeatedly until the solution became visually clear. The solution was cooled at room temperature and citric acid was added.

[5] = 5 ppm compound 1 and 400 ppm Rebaudioside A in acidic water
[6] = 5 ppm compound 1 and 400 ppm Mogroside V in acidic water, both panelists
[7] = 5 ppm compound 1 and 320 ppm Rebaudioside M in acidic water

Q: With C[C@H](CC[C@@H](O[C@@H]1O[C@H](CO[C@@H]2O[C@H](CO)[C@@H](O)[C@H](O)[C@H]2O)[C@@H](O)[C@H](O)[C@H]1O[C@@H]1O[C@H](CO)[C@@H](O)[C@H](O)[C@H]1O)C(C)(C)O)[C@H]1CC[C@@]2(C)[C@@H]3CC=C4[C@@H](CC[C@H](O[C@@H]5O[C@H](CO[C@@H]6O[C@H](CO)[C@@H](O)[C@H](O)[C@H]6O)[C@@H](O)[C@H](O)[C@H]5O)C4(C)C)[C@]3(C)[C@H](O)C[C@]12C [Mogroside V, reference compound] as the compound, how does the “sweetness, equally sweet to sucrose in acidic water” value (“sweetness, equally sweet to sucrose” for short) (panelists [1]; 400 ppm Mogroside V in acidic water, without compound 1) read?
A: 7 % sucrose

Q: With C=C1C[C@@]23CC[C@H]4[C@@](C)(CCC[C@@]4(C)C(=O)O[C@@H]4O[C@H](CO)[C@@H](O)[C@H](O)[C@H]4O)[C@@H]2CC[C@]1(O[C@@H]1O[C@H](CO)[C@@H](O)[C@H](O[C@@H]2O[C@H](CO)[C@@H](O)[C@H](O)[C@H]2O)[C@H]1O[C@@H]1O[C@H](CO)[C@@H](O)[C@H](O)[C@H]1O)C3 [Rebaudioside A, reference compound] as the compound, how does the “sweetness, equally sweet to sucrose” value (panelists [2]; 400 ppm Rebaudioside A in acidic water, without compound 1) read?
A: 7 % sucrose

Q: For C=C1C[C@@]23CC[C@H]4[C@@](C)(CCC[C@@]4(C)C(=O)O[C@@H]4O[C@H](CO)[C@@H](O)[C@H](O[C@@H]5O[C@H](CO)[C@@H](O)[C@H](O)[C@H]5O)[C@H]4O[C@@H]4O[C@H](CO)[C@@H](O)[C@H](O)[C@H]4O)[C@@H]2CC[C@]1(O[C@@H]1O[C@H](CO)[C@@H](O)[C@H](O[C@@H]2O[C@H](CO)[C@@H](O)[C@H](O)[C@H]2O)[C@H]1O[C@@H]1O[C@H](CO)[C@@H](O)[C@H](O)[C@H]1O)C3 [Rebaudioside M, reference compound], which “sweetness, equally sweet to sucrose” value (panelists [3]; 320 ppm Rebaudioside M in acidic water, without compound 1, two panelists) is on record?
A: 8 % sucrose

Q: Which results are given for CC(C)CC(=O)N1CCC[C@H](COc2cccc3c2C(N)=NS(=O)(=O)N3)C1 [compound 1, (S)-1-(3-(((4-amino-2,2-dioxido-1H-benzo[c][1,2,6]thiadiazin-5-yl)oxy)methyl)piperidin-1-yl)-3-methylbutan-1-one]?
A: taste profile: bitterness (panelists [2]; [5]): more bitter; sweetness, equally sweet to sucrose in acidic water (panelists [2]; [5]): 7 % sucrose; sweetness enhancement (panelists [2]; 5 ppm compound 1 in acidic water containing 400 ppm Rebaudioside A): does not enhance the sweetness; solubility in water [4]: not completely soluble; taste profile: mouthfeel (panelists [1]; 5 ppm compound 1 and 400 ppm Mogroside V in acidic water, compared to the sample with just Mogroside V, one panelist): more mouthfeel; taste profile: bitterness (panelists [1]; [6]): not bitter; taste profile: sweet linger (panelists [1]; [6]): slight sweet linger; taste profile: sweetness onset (panelists [1]; [6]): slower sweetness onset; sweetness, equally sweet to sucrose in acidic water (panelists [1]; 5 ppm compound 1 and 400 ppm Mogroside V in acidic water): 10 % sucrose; sweetness against sucrose solution in acidic water (panelists [3]; 5 ppm compound 1 alone in acidic water, two panelists): < 1.5 % sucrose; taste profile: bitterness (panelists [3]; [7]): no bitterness; taste profile: mouthfeel (panelists [3]; [7]): more mouthfeel; sweetness, equally sweet to sucrose in acidic water (panelists [3]; 5 ppm compound 1 and 320 ppm Rebaudioside M in acidic water, two panelists): 10 % sucrose

Source: patent publication US11751592B2, “Sweetness and taste improvement of steviol glycoside or mogroside sweeteners” (The Coca-Cola Company, priority 2016, dated 2023)
